Tests used:
[1] = test system: IL-2-mediated induction of IFN-gamma production; experiment: MAPK inhibitors on rIL-2-induced IFN-gamma release by resting NK cells; type: cell-based, human; conditions: rIL-2 5 U/ml, 20 h
[2] = test system: 2DL4-induced production of IFN-gamma; experiment: MAPK inhibitors on anti-2DL4 mAb-induced IFN-gamma secretion by resting NK cells; type: cell-based, human

Which results are given for `COc1cccc(-c2cc(=O)c3ccccc3o2)c1N` [PD98059]?
inhibition of IL-2-mediated induction of IFN-gamma production ([1]; 50 μM inhibitor): severely inhibited; inhibition of 2DL4-induced IFN-gamma production ([2]; concentration not given): only a partial inhibitory effect

For `C[S+]([O-])c1ccc(-c2nc(-c3ccncc3)c(-c3ccc(F)cc3)[nH]2)cc1` (stereo not shown) [SB203580], which “effect on IL-2-mediated induction of IFN-gamma production” value ([1]; concentration not given) is on record?
The value was “unaffected”.

And the “inhibition of 2DL4-induced IFN-gamma production” value ([2]; 1 μM inhibitor)?
The value was “Complete inhibition”.

From patent publication US7435801B2, “Antibodies and other ligands directed against KIR2DL4 receptor for production of interferon gamma” (The United States of America, as represented by the …, priority 2000, dated 2008)
